Patent US20030215817A1, “Modulation of gene expression in formation of fatty atherosclerotic lesions” (priority 2003, published 2003)

Columns and labels:
Type in all cases: in vivo, rabbit
[1] = tested on: REC1_7 (MspI CACA 282) mRNA; experiment: TOGA analysis, REC1_7
Protocol: (§1) To perform the studies, New Zealand male rabbits weighing 2.0-2.5 kg (Charles River, Calco, Italy) were used. The rabbits were divided into three groups and maintained in identical experimental conditions: (1) control group (n=15); rabbits fed a cholesterol-rich diet; (2) lercanidipine-treated group (n=15); rabbits fed a cholesterol-rich diet and also treated with lercanidipine (3 mg/kg/week); and (3) (R)-lercanidipine-treated group (n=5); rabbits fed a cholesterol-rich diet and also treated with the (R)-enantiomer of lercanidipine (3 mg/kg/week). After a 2 week period of subcutaneous, once a week, pretreatment with 3 mg/kg/week of lercanidipine or (R)-lercanidipine, the rabbits received a daily cholesterol supplement for up to 8 weeks or 2 weeks, respectively. In the following examples, use of the term “lercanidipine” refers to the racemic mixture of lercanidipine hydrochloride, whereas “(R)-lercanidipine” refers to the (R)-enantiomer of lercanidipine hydrochloride.
(§2) The mRNA from the above-described groups was isolated from aorta at different time points, resulting in the following mRNA samples: (1) Day 0 Control=no administered cholesterol, no lercanidipine; (2) Day 0+lercanidipine=no administered cholesterol, treatment with lercanipidine (2 weeks; 3 mg/kg/week); (3) Day 14 Control=cholesterol diet for two weeks, no lercanidipine; (4) Day 14+lercanidipine=cholesterol diet for two weeks, treatment with lercanidipine (four weeks; 3 mg/kg/week); (5) Week 8 Control=cholesterol diet for 8 weeks, no lercanidipine; and (6) Week 8+lercanidipine=cholesterol diet for 8 weeks, treatment with lercanidipine (10 weeks; 3 mg/kg/week). In addition, Day 14+(R)-lercanidipine mRNA samples were prepared from rabbits given a cholesterol diet for two weeks and treated with 3 mg/kg/week (R)-lercanidipine for four weeks.
(§3) Aorta mRNAs were prepared in the following manner. First, the aortas from each experimental group were retrieved and shredded using a polytron homogenizer. The samples were further homogenized using a teflon pestle, after which the cellular debris, nuclei, and blood cells were pelleted by centrifugation. The supernatants were extracted twice with phenol-chloroform-isoamyl alcohol and once with chloroform-isoamyl alcohol. RNA was then precipitated from the aqueous phase with ethanol. The poly A+ mRNA was prepared using standard methods of polyA selection known in the art (Schriber et al., J. Mol. Biol., 142:93-116 (1980)).
(§4) The isolated mRNA was analyzed using a method of simultaneous sequence-specific identification of mRNAs known as TOGA, described in U.S. Pat. No. 5,459,037 and U.S. Pat. No. 5,807,680, hereby incorporated herein by reference. In a preferred embodiment, the TOGA method further comprised an additional PCR step performed using a mixture of four 5′ PCR primers and cDNA templates prepared from a population of antisense cRNAs. A final PCR step that used a mixture of 256 5′ PCR primers produced PCR products that were cDNA fragments that corresponded to the 3′-region of the starting mRNA population. The produced PCR products were then identified by: (a) the initial 5′ sequence comprising the sequence remainder of the recognition site of the restriction endonuclease used to cut and isolate the 3′ region plus the sequence of the preferably four parsing bases immediately 3′ to the remainder of the recognition site, preferably the sequence of the entire fragment; and (b) the length of the fragment. These two parameters, sequence and fragment length, were used to compare the obtained PCR products to a database of known polynucleotide sequences. Since the length of the obtained PCR products includes known vector sequences at the 5′ and 3′ ends of the insert, the sequence of the insert provided in the sequence listing is shorter than the fragment length that forms part of the digital address.
(§5) The method yields Digital Sequence Tags (DSTs), that is, polynucleotides that are expressed sequence tags of the 3′ end of mRNAs. […]

[2] = tested on: REC1_22 (digital address TGGG 164) mRNA; experiment: TOGA analysis, REC1_22
Protocol: as §1, §2, §3, §4, §5

[3] = tested on: REC1_31 (digital address TGCA 210) mRNA, mitochondrial genome; experiment: TOGA analysis, REC1_31
Protocol: as §1, §2, §3, §4, §5

[4] = tested on: REC1_33 (digital address CCGA 96) mRNA, as1_casein gene; experiment: TOGA analysis, REC1_33
Protocol: as §1, §2, §3, §4, §5

[5] = tested on: REC1_37 (digital address TTCA 264) mRNA, ribosomal protein L15; experiment: TOGA analysis, REC1_37
Protocol: as §1, §2, §3, §4, §5

[6] = tested on: REC1_24 (digital address CCGG 232) mRNA; experiment: TOGA analysis, REC1_24
Protocol: as §1, §2, §3, §4, §5

[7] = tested on: REC1_34 (digital address CGGT 209) mRNA; experiment: TOGA analysis, REC1_34
Protocol: as §1, §2, §3, §4, §5

[8] = tested on: REC1_2 (MspI AATC 108) mRNA; experiment: TOGA analysis, REC1_2; conditions: REC1_2, AATC 108; rabbit aorta; 14 days cholesterol + (R)-enantiomer
Protocol: as §1, §2, §3
as §4, with “These two parameters, sequence and fragment length, were used to compare the obtained PCR products to a database of known polynucleotide sequences. Since the length of the obtained PCR products includes known vector sequences at the 5′ and 3′ ends of the insert, the sequence of the insert provided in the sequence listing is shorter than the fragment length that forms part of the digital address.” left out

[9] = tested on: REC1_18 (MspI TGGT 241) mRNA; experiment: TOGA analysis, REC1_18; conditions: REC1_18 TGGT 241; rabbit aorta, cholesterol 14 days
Protocol: as §1, §2, §3
as §4, with “These two parameters, sequence and fragment length, were used to compare the obtained PCR products to a database of known polynucleotide sequences. Since the length of the obtained PCR products includes known vector sequences at the 5′ and 3′ ends of the insert, the sequence of the insert provided in the sequence listing is shorter than the fragment length that forms part of the digital address.” left out

[10] = tested on: REC1_1 (MspI AAGC 288) mRNA, TYRO protein tyrosine kinase binding p; experiment: TOGA analysis, REC1_1
Protocol: as §1, §2, §3, §4, §5

[11] = tested on: REC1_28 (digital address CGGT 101) mRNA, calgizzarin; experiment: TOGA analysis, REC1_28
Protocol: as §1, §2, §3, §4, §5

[12] = aorta at day 14 of cholesterol administration, 3 mg/kg/week for 4 weeks
[13] = TOGA, hypercholesterolemic plus lercanidipine R (−), eight weeks, H2 (normocholesterolemic)=1.0
[14] = aorta at day 14 of cholesterol, 3 mg/kg/week for 4 weeks

Row | level of gene expression of REC1_1 (TOGA) ([10]; aorta at day 14 of cholesterol treatment, 3 mg/kg/week for 4 weeks) | Compound | level of gene expression (TOGA), 14 Day hypercholesterol + Lercanidipine (R) ([1]; REC1_7, CACA 282, rabbit aorta, 14 days cholesterol + (R)-enantiomer) | level of gene expression, 14 Day hypercholesterol + Lercanidipine (R) ([2]; REC1_22 TGGG 164, rabbit aorta, cholesterol 14 days) | level of gene expression, 14 Day hypercholesterol + Lercanidipine (R) ([3]; REC1_31 TGCA 210, rabbit aorta, cholesterol 14 days) | level of gene expression, 14 Day hypercholesterol + Lercanidipine (R) ([4]; REC1_33 CCGA 96, rabbit aorta, 14 days cholesterol) | level of gene expression, 14 Day hypercholesterol + Lercanidipine (R) ([5]; REC1_37 TTCA 264, rabbit aorta, cholesterol 14 days) | level of gene expression, 14 Day hypercholesterol + Lercanidipine (R) ([6]; REC1_24 CCGG 232, rabbit aorta, 14 days cholesterol) | level of gene expression, 14 Day hypercholesterol + Lercanidipine (R) ([7]; REC1_34 CGGT 209, rabbit aorta, 14 days cholesterol) | level of gene expression (TOGA), 14 Day hypercholesterol + Lercanidipine (R) [8] | level of gene expression, 14 Day hypercholesterol + Lercanidipine (R) [9] | level of gene expression (TOGA), 14 Day hypercholesterol + Lercanidipine (R) ([10]; REC1_1, AAGC 288, rabbit aorta, 14 days cholesterol + (R)-enantiomer) | level of gene expression, 14 Day hypercholesterol + Lercanidipine (R) ([11]; REC1_28 CGGT 101, rabbit aorta, 14 days cholesterol) | level of gene expression of REC1_7 (TOGA) [1, 12] | Relative Abundance Rec1_22, TOGA, D [2, 13] | level of gene expression of REC1_31 (TOGA) [3, 12] | level of gene expression of REC1_33 (TOGA) [4, 12] | level of gene expression of REC1_37 (TOGA) [5, 14] | Relative Abundance Rec1_24, TOGA, D [6, 13] | level of gene expression of REC1_34 (TOGA) [7, 14] | expression of REC1_28 (TOGA), in words ([11]; aorta of hypercholesterolemic rabbits treated with (R)-lercanidipine)
1 | – | COC(=O)C1=C(C)NC(C)=C(C(=O)OC(C)(C)CN(C)CCC(c2ccccc2)c2ccccc2)[C@@H]1c1cccc([N+](=O)[O-])c1 [Lercanidipine (R)] | 683 | 47 | 28 | 170 | 42 | 139 | 58 | 1250 | 330 | 872 | 864 | – | – | – | – | – | – | – | –
2 | 872 | COC(=O)C1=C(C)NC(C)=C(C(=O)OC(C)(C)CN(C)CCC(c2ccccc2)c2ccccc2)[C@@H]1c1cccc([N+](=O)[O-])c1.Cl (single isomer, unassigned) [(R)-lercanidipine] | – | – | – | – | – | – | – | – | – | – | – | 683 | 0.1 | 28 | 170 | 42 | 0.3 | 58 | not down-regulated
